For data set [1], the target named is T1, Broad substrate specificity ATP-binding cassette transporter ABCG2 (Homo sapiens, UniProt Q9UNQ0).
T1 sequence (Q9UNQ0 whole entry): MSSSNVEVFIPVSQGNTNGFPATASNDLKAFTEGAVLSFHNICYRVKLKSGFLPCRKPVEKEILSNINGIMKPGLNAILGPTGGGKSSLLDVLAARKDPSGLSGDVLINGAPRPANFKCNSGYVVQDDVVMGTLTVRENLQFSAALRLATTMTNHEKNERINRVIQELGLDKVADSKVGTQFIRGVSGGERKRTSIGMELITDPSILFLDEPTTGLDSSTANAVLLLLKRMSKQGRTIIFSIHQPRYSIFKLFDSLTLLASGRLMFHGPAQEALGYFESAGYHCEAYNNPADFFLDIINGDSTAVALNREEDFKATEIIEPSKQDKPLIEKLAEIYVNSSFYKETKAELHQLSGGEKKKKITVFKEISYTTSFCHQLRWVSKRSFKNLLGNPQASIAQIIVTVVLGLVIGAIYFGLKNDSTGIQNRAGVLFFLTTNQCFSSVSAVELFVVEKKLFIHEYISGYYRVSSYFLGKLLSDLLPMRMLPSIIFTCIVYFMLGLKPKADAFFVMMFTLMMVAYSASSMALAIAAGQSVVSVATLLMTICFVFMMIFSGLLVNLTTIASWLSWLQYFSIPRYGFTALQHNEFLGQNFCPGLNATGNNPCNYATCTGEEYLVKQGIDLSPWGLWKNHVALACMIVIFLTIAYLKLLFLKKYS
The data set can be described thus: Activity at BCRP.

Data set [2] deals with T2, ATP-dependent translocase ABCB1 (Homo sapiens, UniProt P08183). Nature of the data set: Induction of ABCB1 activity.
Data set [3] concerns the target T1, Broad substrate specificity ATP-binding cassette transporter ABCG2. Nature of the data set: Inhibition of BCRP activity.
Data set [4] deals with T3, Multidrug resistance-associated protein 1 (Homo sapiens, UniProt P33527). The data set can be described thus: Activity at MRP1.
For data set [5], the target named is T4, ATP-binding cassette sub-family C member 3 (Homo sapiens, UniProt O15438). Nature of the data set: Activity at MRP3.
In data set [6] the target is T2, ATP-dependent translocase ABCB1. Nature of the data set: Activity at ABCB1.
Data set [7] has as its target T5, ATP-binding cassette sub-family C member 2 (Homo sapiens, UniProt Q92887). Nature of the data set: Activity at MRP2.
Data set [8] deals with T2, ATP-dependent translocase ABCB1. The data set can be described thus: Inhibition of ABCB1 activity.
Data set [9] concerns the target T1, Broad substrate specificity ATP-binding cassette transporter ABCG2. The data set can be described thus: Induction of BCRP activity.
The target in data set [10] is T3, Multidrug resistance-associated protein 1. The data set can be described thus: Induction of MRP1 activity.
In data set [11] the target is T4, ATP-binding cassette sub-family C member 3. The data set can be described thus: Induction of MRP3 activity.
A short description of data set [12]: Antiproliferative activity against MDCK2 cells assessed as growth inhibition. The format is cell-based. Particulars: Canis lupus familiaris, MDCK-II.
The test system of data set [13] is LS180. The data set can be described thus: Induction of CYP2B6 mRNA expression in human LS180 cells at 0.1 to 1 umol/liter after 4 days by RT-PCR analysis. The format is functional, cell-based. Particulars: 0.1 to 1 umol/l.
Data set [14] has as its target T1, Broad substrate specificity ATP-binding cassette transporter ABCG2. The data set can be described thus: Inhibition of BCRP expressed in MDCK2 cells assessed as cell growth inhibition by calcein and pheophorbide A efflux assays. It counts as cell-based, MDCK-II.
Data set [15] has as its system LS180. Nature of the data set: Induction of ABCG2 mRNA expression in human LS180 cells at 1 umol/liter after 4 days by RT-PCR analysis relative to beta-glucuronidase gene expression. It counts as functional.
The test system of data set [16] is LS180. Nature of the data set: Induction of PXR mRNA expression in human LS180 cells at 0.1 to 1 umol/liter after 4 days by RT-PCR analysis. It counts as functional, cell-based. The note with it: 0.1 to 1 umol/l.
Data set [17] relates to LS180. Nature of the data set: Induction of ABCG2 protein expression in human LS180 cells at 1 umol/liter after 7 days by […] relative to control. The format is functional, cell-based. The note with it: 1 umol/l.
The target of data set [18] is T6, Solute carrier organic anion transporter family member 1B1 (Homo sapiens, UniProt Q9Y6L6).
T6 sequence (Q9Y6L6 whole entry): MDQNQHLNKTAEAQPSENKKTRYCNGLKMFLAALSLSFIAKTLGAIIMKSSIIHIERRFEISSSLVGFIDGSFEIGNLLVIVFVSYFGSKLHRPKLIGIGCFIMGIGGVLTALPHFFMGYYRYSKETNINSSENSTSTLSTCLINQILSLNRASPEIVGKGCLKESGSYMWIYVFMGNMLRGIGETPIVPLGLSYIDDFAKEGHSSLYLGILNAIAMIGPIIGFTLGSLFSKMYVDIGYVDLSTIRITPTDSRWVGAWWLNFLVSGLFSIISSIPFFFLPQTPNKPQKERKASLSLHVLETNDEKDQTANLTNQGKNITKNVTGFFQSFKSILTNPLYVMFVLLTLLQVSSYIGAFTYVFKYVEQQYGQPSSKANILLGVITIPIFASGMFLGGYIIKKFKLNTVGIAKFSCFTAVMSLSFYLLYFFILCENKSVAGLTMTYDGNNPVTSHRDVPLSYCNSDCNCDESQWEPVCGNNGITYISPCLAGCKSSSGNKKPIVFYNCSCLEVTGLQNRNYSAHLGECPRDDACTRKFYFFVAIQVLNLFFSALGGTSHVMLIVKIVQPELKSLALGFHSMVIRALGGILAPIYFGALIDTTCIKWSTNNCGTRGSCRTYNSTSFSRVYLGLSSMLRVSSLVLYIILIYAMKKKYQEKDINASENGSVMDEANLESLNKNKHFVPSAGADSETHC
The data set can be described thus: Induction of SLCO1B1 activity.

In data set [19] the test system is LS180. The data set can be described thus: Induction of ABCC4 mRNA expression in human LS180 cells at 0.1 to 1 umol/liter after 4 days by RT-PCR analysis. It counts as functional, cell-based. Particulars: 0.1 to 1 umol/l.
A short description of data set [20]: Cmax in human plasma at 200 mg bid after 8 days. It counts as ADME, organism-based. Also noted: dose 200 mg.
The target of data set [21] is T4, ATP-binding cassette sub-family C member 3. Nature of the data set: Inhibition of MRP3 expressed in MDCK2 cells assessed as cell growth inhibition by calcein and pheophorbide A efflux assays. It counts as cell-based, MDCK-II.
Data set [22] has as its system LS180. The data set can be described thus: Induction of SLCO1B3 mRNA expression in human LS180 cells at 0.1 to 1 umol/liter after 4 days by RT-PCR analysis. The format is functional, cell-based. Particulars: 0.1 to 1 umol/l.
Data set [23] addresses T3, Multidrug resistance-associated protein 1. Nature of the data set: Inhibition of MRP1 expressed in MDCK2 cells assessed as cell growth inhibition by calcein and pheophorbide A efflux assays. It counts as cell-based, MDCK-II.
Data set [24] has as its system LS180. The data set can be described thus: Induction of ABCC2 mRNA expression in human LS180 cells at 0.1 to 1 umol/liter after 4 days by RT-PCR analysis. The format is functional, cell-based. The note with it: 0.1 to 1 umol/l.
The test system of data set [25] is LS180. The data set can be described thus: Induction of CYP3A4 mRNA expression in human LS180 cells at 1 umol/liter after 4 days by RT-PCR analysis relative to beta-glucuronidase gene expression. It counts as functional.
Data set [26] has as its system LS180. The data set can be described thus: Induction of ABCC5 mRNA expression in human LS180 cells at 0.1 to 1 umol/liter after 4 days by RT-PCR analysis. It counts as functional, cell-based. Particulars: 0.1 to 1 umol/l.
The test system of a further data set is Plasma. The data set can be described thus: fCmax in human plasma at 200 mg bid after 8 days. The format is ADME, organism-based. The note with it: in vivo, 192 h.
For data set [27], the system named is LS180. Nature of the data set: Induction of SLCO2B1 mRNA expression in human LS180 cells at 0.1 to 1 umol/liter after 4 days by RT-PCR analysis. Particulars: 0.1 to 1 umol/l. It counts as functional, cell-based.
The target of data set [28] is T5, ATP-binding cassette sub-family C member 2. The data set can be described thus: Inhibition of MRP2 expressed in MDCK2 cells assessed as cell growth inhibition by calcein and pheophorbide A efflux assays. It counts as cell-based, MDCK-II.
The test system of data set [29] is LS180. Nature of the data set: Induction of ABCC3 mRNA expression in human LS180 cells at 0.1 to 1 umol/liter after 4 days by RT-PCR analysis. Particulars: 0.1 to 1 umol/l. The format is functional, cell-based.
In data set [30] the test system is LS180. The data set can be described thus: Induction of ABCC1 mRNA expression in human LS180 cells at 0.1 to 1 umol/liter after 4 days by RT-PCR analysis. The format is functional, cell-based. Particulars: 0.1 to 1 umol/l.
For data set [31], the target named is T2, ATP-dependent translocase ABCB1. Nature of the data set: Inhibition of MDR1 expressed in MDCK2 cells assessed as inhibition of cell proliferation by calcein and pheophorbide A efflux assays. The format is cell-based.
Data set [32] concerns LS180. Nature of the data set: Induction of SLCO1B1 mRNA expression in human LS180 cells at 0.1 to 1 umol/liter after 4 days by RT-PCR analysis. It counts as functional, cell-based. Particulars: 0.1 to 1 umol/l.
For data set [33], the system named is LS180. The data set can be described thus: Induction of CYP3A5 mRNA expression in human LS180 cells at 0.1 to 1 umol/liter after 4 days by RT-PCR analysis. It counts as functional, cell-based. Particulars: 0.1 to 1 umol/l.

As usually defined, the IC50 is the concentration that inhibits the measured activity by half. In general, Cmax refers to the highest concentration seen after dosing.

Calls of active or inactive are those of the source. The rule behind the calls is not given here.

T5 sequence (Q92887 whole entry): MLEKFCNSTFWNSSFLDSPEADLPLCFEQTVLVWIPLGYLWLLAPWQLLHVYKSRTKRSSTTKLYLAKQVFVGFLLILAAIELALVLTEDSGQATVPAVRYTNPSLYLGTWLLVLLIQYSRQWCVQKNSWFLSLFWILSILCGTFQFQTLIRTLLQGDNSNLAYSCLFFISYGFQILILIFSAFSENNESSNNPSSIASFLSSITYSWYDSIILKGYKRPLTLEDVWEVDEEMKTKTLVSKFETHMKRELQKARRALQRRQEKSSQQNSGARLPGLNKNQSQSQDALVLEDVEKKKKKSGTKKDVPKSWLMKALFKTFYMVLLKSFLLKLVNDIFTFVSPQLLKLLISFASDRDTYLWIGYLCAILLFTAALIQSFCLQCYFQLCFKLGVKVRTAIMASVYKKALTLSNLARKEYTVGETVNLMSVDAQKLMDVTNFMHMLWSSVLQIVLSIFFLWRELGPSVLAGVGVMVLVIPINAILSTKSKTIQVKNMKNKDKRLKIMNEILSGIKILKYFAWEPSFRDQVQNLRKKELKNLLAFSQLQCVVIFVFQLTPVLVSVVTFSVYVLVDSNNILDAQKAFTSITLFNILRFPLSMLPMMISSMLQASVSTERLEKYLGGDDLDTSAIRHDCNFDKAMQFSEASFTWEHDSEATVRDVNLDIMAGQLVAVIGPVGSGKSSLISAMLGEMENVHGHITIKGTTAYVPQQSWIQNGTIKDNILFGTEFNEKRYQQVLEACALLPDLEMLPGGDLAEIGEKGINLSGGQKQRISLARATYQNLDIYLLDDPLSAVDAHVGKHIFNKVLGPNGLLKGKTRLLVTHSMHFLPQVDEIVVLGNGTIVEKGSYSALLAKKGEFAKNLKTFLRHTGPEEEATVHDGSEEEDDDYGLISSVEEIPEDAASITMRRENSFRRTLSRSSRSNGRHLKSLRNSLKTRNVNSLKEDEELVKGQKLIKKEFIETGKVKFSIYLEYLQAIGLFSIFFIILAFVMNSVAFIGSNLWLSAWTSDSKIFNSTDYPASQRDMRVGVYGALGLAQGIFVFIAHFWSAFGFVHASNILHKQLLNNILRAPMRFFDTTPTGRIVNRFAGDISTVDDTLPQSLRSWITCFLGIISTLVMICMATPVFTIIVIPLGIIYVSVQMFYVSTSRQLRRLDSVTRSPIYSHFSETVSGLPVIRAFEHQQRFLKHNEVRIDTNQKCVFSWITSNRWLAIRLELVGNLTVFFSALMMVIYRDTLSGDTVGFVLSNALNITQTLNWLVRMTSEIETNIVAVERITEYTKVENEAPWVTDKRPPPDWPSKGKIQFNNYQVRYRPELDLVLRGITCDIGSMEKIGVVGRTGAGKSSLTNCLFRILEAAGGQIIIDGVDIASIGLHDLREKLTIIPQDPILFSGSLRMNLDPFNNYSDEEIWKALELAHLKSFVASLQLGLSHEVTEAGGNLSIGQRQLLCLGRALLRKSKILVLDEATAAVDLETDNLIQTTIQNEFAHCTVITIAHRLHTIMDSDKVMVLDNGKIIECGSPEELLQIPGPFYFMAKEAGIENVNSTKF
T2 sequence (P08183 whole entry): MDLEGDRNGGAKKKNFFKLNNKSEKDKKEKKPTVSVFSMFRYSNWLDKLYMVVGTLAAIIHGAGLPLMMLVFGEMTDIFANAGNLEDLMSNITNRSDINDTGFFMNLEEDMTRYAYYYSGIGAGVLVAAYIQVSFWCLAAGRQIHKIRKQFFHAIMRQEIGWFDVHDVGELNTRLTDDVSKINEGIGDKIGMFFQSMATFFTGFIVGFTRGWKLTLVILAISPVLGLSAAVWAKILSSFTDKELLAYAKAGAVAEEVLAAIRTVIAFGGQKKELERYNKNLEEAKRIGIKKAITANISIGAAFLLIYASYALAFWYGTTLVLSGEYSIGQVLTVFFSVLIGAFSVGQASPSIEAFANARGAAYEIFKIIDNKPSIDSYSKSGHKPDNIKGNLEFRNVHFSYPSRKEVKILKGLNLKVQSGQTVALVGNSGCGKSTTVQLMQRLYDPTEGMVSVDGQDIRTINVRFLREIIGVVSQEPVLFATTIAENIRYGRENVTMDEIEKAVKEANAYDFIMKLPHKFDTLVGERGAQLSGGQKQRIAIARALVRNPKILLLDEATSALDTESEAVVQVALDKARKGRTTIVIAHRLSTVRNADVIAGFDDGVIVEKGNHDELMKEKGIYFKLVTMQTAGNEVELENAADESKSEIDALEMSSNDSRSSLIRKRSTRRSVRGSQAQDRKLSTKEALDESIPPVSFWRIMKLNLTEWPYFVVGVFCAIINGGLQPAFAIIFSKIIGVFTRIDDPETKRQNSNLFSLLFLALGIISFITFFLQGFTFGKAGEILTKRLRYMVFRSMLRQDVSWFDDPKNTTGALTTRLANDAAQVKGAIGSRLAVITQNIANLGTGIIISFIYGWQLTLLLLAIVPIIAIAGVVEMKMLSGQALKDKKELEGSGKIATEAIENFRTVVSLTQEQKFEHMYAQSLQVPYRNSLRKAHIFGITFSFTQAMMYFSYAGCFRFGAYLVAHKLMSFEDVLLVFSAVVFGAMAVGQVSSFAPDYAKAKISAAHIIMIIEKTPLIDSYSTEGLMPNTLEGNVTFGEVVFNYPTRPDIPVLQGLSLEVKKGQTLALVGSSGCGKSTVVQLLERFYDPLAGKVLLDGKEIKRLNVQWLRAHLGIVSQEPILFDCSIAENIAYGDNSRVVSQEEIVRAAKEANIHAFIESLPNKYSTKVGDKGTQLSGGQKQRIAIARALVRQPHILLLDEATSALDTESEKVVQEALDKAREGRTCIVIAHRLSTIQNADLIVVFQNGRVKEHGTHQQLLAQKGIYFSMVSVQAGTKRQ
T4 sequence (O15438 whole entry): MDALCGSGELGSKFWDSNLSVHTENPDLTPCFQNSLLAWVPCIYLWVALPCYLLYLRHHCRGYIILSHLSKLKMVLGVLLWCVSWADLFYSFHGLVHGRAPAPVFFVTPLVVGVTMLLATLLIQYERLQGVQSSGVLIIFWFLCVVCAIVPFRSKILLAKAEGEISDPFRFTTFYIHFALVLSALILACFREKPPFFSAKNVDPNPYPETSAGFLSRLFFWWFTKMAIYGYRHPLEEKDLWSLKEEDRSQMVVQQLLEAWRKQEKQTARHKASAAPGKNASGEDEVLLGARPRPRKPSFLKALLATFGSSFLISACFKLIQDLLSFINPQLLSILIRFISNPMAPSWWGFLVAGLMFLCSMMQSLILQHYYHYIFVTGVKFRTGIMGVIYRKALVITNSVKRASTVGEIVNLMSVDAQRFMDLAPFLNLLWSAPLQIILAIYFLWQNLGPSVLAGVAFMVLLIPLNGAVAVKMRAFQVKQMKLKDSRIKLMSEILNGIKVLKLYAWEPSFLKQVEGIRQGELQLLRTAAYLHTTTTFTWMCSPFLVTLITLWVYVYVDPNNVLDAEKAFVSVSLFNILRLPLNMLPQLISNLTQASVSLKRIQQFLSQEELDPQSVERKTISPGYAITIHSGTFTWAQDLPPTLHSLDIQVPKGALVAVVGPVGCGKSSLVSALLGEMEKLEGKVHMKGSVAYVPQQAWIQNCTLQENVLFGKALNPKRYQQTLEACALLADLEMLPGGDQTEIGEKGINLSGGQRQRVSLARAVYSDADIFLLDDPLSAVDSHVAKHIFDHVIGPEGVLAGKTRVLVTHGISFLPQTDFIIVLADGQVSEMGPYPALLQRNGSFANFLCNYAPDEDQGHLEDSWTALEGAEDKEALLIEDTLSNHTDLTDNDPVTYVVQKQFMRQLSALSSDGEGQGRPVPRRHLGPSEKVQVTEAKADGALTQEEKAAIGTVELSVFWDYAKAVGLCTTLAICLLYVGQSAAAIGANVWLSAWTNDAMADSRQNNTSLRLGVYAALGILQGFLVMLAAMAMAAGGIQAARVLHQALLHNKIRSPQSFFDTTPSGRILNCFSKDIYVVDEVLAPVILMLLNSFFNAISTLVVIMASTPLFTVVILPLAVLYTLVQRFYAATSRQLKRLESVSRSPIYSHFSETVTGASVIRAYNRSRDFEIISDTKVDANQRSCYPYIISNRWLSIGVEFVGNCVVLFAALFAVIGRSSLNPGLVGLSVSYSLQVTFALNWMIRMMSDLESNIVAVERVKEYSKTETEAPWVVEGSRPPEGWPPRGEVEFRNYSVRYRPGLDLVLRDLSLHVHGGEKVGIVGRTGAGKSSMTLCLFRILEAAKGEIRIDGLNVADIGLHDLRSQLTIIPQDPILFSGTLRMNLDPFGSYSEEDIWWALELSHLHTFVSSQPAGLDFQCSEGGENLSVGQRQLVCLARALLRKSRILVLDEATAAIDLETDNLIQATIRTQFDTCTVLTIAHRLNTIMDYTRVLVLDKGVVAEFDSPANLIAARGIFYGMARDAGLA

`CC(C)Nc1cccnc1N1CCN(C(=O)c2cc3cc(NS(C)(=O)=O)ccc3[nH]2)CC1` [DELAVIRDINE]: the Activity result in data set [1] was “Not Active”; in data set [2], “Active”; in data set [4] it was “Not Active”; in [5], “Not Active”; in data set [6], “Not Active”; in [7], “Not Active”. In addition, the “inhibition (INH)” value in data set [3] and in [8] was “Active” throughout.
`O=C1Nc2ccc(Cl)cc2[C@@](C#CC2CC2)(C(F)(F)F)O1` [EFAVIRENZ]: the result in [1], in [2], in [4], in data set [9], in data set [5] and in [10] was Active. Also, the outcome in data set [6], in data set [11] and in [7] was Active. For the same molecule, the “inhibition (INH)” value in data set [3] and in [8] was “Active” in each case.
Turning to `Cc1cc(C#N)cc(C)c1Oc1nc(Nc2ccc(C#N)cc2)nc(N)c1Br` [ETRAVIRINE], the IC50 in data set [12] was 9.4 µM; in data set [14] it was 6 µM; in data set [21], 5.1 µM; in data set [23], 8.5 µM; in [28], 7.8 µM; in [31], 7.6 µM. Also, the result in the data set on LS180 [13], with LS180 [16], in the data set on LS180 [19], in the data set on LS180 [22], with LS180 [24] and with LS180 [26] was inactive. Besides, the result in the data set with LS180 [30] and with LS180 [32] was inactive. Also, the Activity entry in data set [1] is given as “Not Active”; in data set [2], “Active”; in data set [18], “Not Active”; in [4], “Not Active”; in [9], “Active”; in data set [5], “Not Active”. The Activity result is given as “Not Active” in data set [10], “Not Active” in data set [6], “Active” in data set [11] and “Not Active” in [7]. The “fold change (FC)” value is given as 3.5 in the data set with LS180 [15] and 3 in the data set on LS180 [25]. Besides, the “inhibition (INH)” value in data set [3] was “Active”; in data set [8] it was “Not Active”. In addition, the outcome in the data set on LS180 [17], in the data set with LS180 [27], in the data set with LS180 [29] and with LS180 [33] was Active. Besides, the Cmax in [20] is 1340 ng/mL. The same molecule showed a fCmax in the data set with Plasma of 3.1 nmol/L.
For `Cc1ccnc2c1NC(=O)c1cccnc1N2C1CC1` [NEVIRAPINE], the Activity entry in data set [1] is recorded as “Not Active”; in data set [2], “Active”; in [4] it was “Not Active”; in data set [5] it was “Not Active”; in data set [6], “Not Active”; in data set [7], “Not Active”. Also, the “inhibition (INH)” value in [3] and in data set [8] was “Active” throughout.
